The subject of test [1] is rye-grass (Lolium multiflorum). The test is described as follows: Efficiency test of the herbicidal composition on rye-grass in oilseed rape fields. Type of test: in vivo. Particulars: for percentage of weeds eliminated, Trial ALS11H56-02 / percentage of weeds eliminated, Trial ALS11H56-04 / percentage of weeds eliminated, Trial ALS12H56-03: crop OSR; for percentage of weeds eliminated, Trial ALS11H56-02 / percentage of weeds eliminated, Trial ALS11H56-04: 53 DAA; for percentage of weeds eliminated, Trial ALS12H56-03: 58 DAA; for Maximum percentage of weeds eliminated: maximum of three OSR trials; for Maximum percentage of weeds eliminated / Minimum percentage of weeds eliminated: 53-58 DAA; for Minimum percentage of weeds eliminated: minimum of three OSR trials. An excerpt:
This plant, also called […] or Italian rye-grass (Lolium multiflorum) is traditionally considered to be a pest.
The composition has been tested on different parcels of oilseed rape (OSR for Oilseed rape, Brassica napus).
Findings relating to damages caused by the different compounds that were trialed are set out in percentages of weeds eliminated from 0 to 100% with respect to a trialed lot in which no herbicidal treatment was applied. The number, 0, corresponds to no observed damage to weeds whereas the number, 100, corresponds to an elimination of the entirety of the weeds.
Further, a volume of 0.8 L of the aforementioned composition has been applied per hectare to the treated lot.
Quizalofop-p-ethyl and flauzifop-p-butyl belong to the aryloxyphenoxypropionate family. A volume of 1.2 L of quizalofop-p-ethyl per hectare and a volume of 1.5 L of flauzifop-p-butyl per hectare have respectively been applied.
The compositions—ALSNC10HCLQ01 0.8 and Q+C 1:1 (0.4-0.5 liters per hectare) and quizalofop-p-ethyl (1.2 liters per hectare) which were tested have been diluted, prior to their application, in 1 L of adjuvant oil (Actirob).
Different trials have been conducted in different fields where oilseed rape (OSR) is grown. The efficiency of different products and of the herbicidal composition referred to in the invention have been evaluated at different time intervals following the application of the said products to the crop in question (DAA means “days after application”). For example, the efficiency of products has been measured 53 and 58 days after application to the field of oilseed rape. These intervals following application of the composition are necessary and adequate to enable the ultimate efficiency of the trialed products to be judged.

Test [2] concerns blackgrass (Alopecurus myosuroides). Put plainly: Efficiency test of the herbicidal composition on blackgrass in field crops. The class given is in vivo. Particulars: for percentage of weeds eliminated, Trial No. ALS12H48 -05: 44 DAA; for percentage of weeds eliminated, Trial No. ALS11H56-01: 50 DAA; for Maximum percentage of weeds eliminated: maximum of the trials; for Maximum percentage of weeds eliminated / Minimum percentage of weeds eliminated: 44-50 DAA; for Minimum percentage of weeds eliminated: minimum of the trials. How it is done: Trials were also carried out to show the efficiency of the herbicidal composition referred to in the invention on a second weed called blackgrass. This plant is an annual plant and has traditionally been seen as a weed in cultivated fields.
The composition was tested on crops including crops of beetroot (Sugar beet, Beta vulgaris), oilseed rape (OSR, Brassica napus).
The same compounds that were used in Example 1 were evaluated for efficiency.
In the same manner as for Example 1, different trials were carried out in different fields, in each which a plant of interest was cultivated.
In this example, tests were carried out on two plots of oilseed rape, on the one hand, and in a lot of beetroot on the other hand.
The efficiency of different products and the herbicidal composition referred to in the invention have been evaluated at different intervals following the application (DAA) of the aforementioned products onto the crop in question.
For example, the efficiency of products has been measured at 44, 46 and 50 days following application of the products.

As to `CCOC(=O)[C@@H](C)Oc1ccc(Oc2cnc3cc(Cl)ccc3n2)cc1` [quizalofop-p-ethyl], in test [1], the “percentage of weeds eliminated, Trial ALS11H56-02” value is on record as 26%; the “percentage of weeds eliminated, Trial ALS11H56-04” value is listed as 76%; the “percentage of weeds eliminated, Trial ALS12H56-03” value was 68%; the “Maximum percentage of weeds eliminated” value was 76%. Moreover, the “Minimum percentage of weeds eliminated” value in test [1] is on record as 26%. Further, in test [2] (crop OSR), the “percentage of weeds eliminated, Trial No. ALS12H48 -05” value is 50% and the “percentage of weeds eliminated, Trial No. ALS11H56-01” value is listed as 63%. Besides, the “percentage of weeds eliminated, Trial No. ALS11H42-02” value in test [2] (crop OSR, 46 DAA) came to 30%. In test [2], the “Maximum percentage of weeds eliminated” value is recorded as 63% and the “Minimum percentage of weeds eliminated” value was 30%.

For the molecule `CCCCOC(=O)[C@@H](C)Oc1ccc(Oc2ccc(C(F)(F)F)cn2)cc1` [flauzifop-p-butyl], in test [1], the “percentage of weeds eliminated, Trial ALS11H56-02” value is 3%; the “percentage of weeds eliminated, Trial ALS11H56-04” value stood at 66%; the “percentage of weeds eliminated, Trial ALS12H56-03” value is 46%; the “Maximum percentage of weeds eliminated” value came out at 66%. The “Minimum percentage of weeds eliminated” value in test [1] is 3%. In test [2] (crop OSR), the “percentage of weeds eliminated, Trial No. ALS12H48 -05” value was found to be 52% and the “percentage of weeds eliminated, Trial No. ALS11H56-01” value is listed as 76%. For the same molecule, in test [2], the “Maximum percentage of weeds eliminated” value is 76% and the “Minimum percentage of weeds eliminated” value is reported as 52%.

For the origin of these results see patent US10939680B2, “Herbicidal composition” (priority 2014, dated 2021).
